# PubChem BioAssay (NCI)
# Where “and” joins values, the source holds several entries; their conditions need not be identical. Identical values can stand only once.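 Five concentrations, 48 hours, 96-well plates. GI50 = concentration required for 50% inhibition of growth. At the TGI there is no net growth.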
# System: MDA-MB-468 breast
# Experiment: growth of human tumour cells (NCI), 48 h
Compound,GI50,TGI [µM]
CCOC(=O)N1C/C(=C/c2ccc(Cl)cc2)C(=O)/C(=C/c2ccc(Cl)cc2)C1,1.96 µM,5
O=C(NNc1nc2cc(F)c(F)cc2n2cccc12)c1ccncn1,0.241 µM,1.58
COc1ccc(-c2cc(-c3ccccc3)nc(SCCCC(=O)NO)n2)cc1OC,1.44 µM,3.62
CC(=O)/C=C/c1ccc(OCc2ccc(C(C)(C)C)cc2)cc1,33.9 µM,> 1000
C[C@@]1(C(=O)Nc2ccc(F)nc2)CCCN1c1nc(Nc2cc(C3CC3)[nH]n2)c2cccn2n1,0.25 µM and 0.526 µM,4.37
CCN(CC)Cc1cc(Nc2c3ccc(Cl)cc3nc3ccc(OC)cc23)ccc1O,1.71 µM,3.67
O=C(c1ccc(Cl)cc1)c1no[n+]([O-])c1C(=O)c1ccc(Cl)cc1,9.22 µM,27.7
c1ccc2cc(C[n+]3ccn(CCCCCCCCCCCCn4cc[n+](Cc5ccc6ccccc6c5)c4)c3)ccc2c1,0.494 µM,1.28
COc1ccc(/C=C/C(=O)c2cc3c(N)c(C(=O)Nc4cccc(Cl)c4C)sc3nc2C)cc1,0.176 µM,2.45
COc1cc(/C=C/c2cc(/C=C/c3ccc(O)c(OC)c3)n(-c3c(Cl)cccc3Cl)c(=O)n2)ccc1O,2.76 µM,7.18
CC1(C)C(N(O)C(=O)Nc2ccc(Cl)cc2)N(c2ccc(Cl)cc2)C(=O)N1CC(=O)N/N=C/C=C/c1ccc([N+](=O)[O-])o1 (stereo not drawn),1.62 µM,5.35
O=C(Nc1ccc(Br)cc1)Nc1nc2ccc([N+](=O)[O-])cc2s1,1.67 µM,3.29
CCO/C=N/C1=C(C#N)C(c2ccc(OC)cc2)c2sc3c(F)cccc3c2O1 (stereo not drawn),2.41 µM,19.4
c1ccc([P+](c2ccccc2)(c2ccccc2)c2ccc3c4ccc([P+](c5ccccc5)(c5ccccc5)c5ccccc5)c5cccc(c6cccc2c63)c54)cc1,0.838 µM,7.46
O=C1[C@@H]2Cc3c([nH]c4ccccc34)[C@H](c3c(Cl)cccc3Cl)N2C(=O)CN1C1CCN(Cc2ccccc2)CC1,2.09 µM,4.27
COc1ccc(CC(C)=C(c2ccc(OCCN3CCCCCC3)cc2)c2ccc(OCCN3CCCCCC3)cc2)cc1,0.176 µM,0.667
CCn1c(=O)c(Oc2ccc(F)cc2F)cc2cnc(NC3CCOCC3)nc21,> 25 µM,> 25
COc1cc(-c2ccc(-c3ccc(C(=N)N)cc3)s2)cc(OC)c1OC,1.64 µM,3.15
CNC(=O)NCC1OC(n2cnc3c(NC(=O)Nc4ccccc4)ncnc32)C(O[Si](C)(C)C(C)(C)C)C1CC(=O)N(C)OC (stereo not drawn),1.87 µM,6.38
C#CCn1cnc2cnc(Nc3cccc(NC(=O)CCl)c3)nc21,8.13 µM,22.8

Compound,GI50,TGI [µM]
O=C(Nc1nc(-c2ccc(Cl)cc2)cs1)c1cc(-c2ccc(Br)cc2)nc2ccc(Cl)cc12,10.9 µM,78.3
CCNC(=O)N1CCc2cc(OC)c(OCCc3ccc(OC)c(N)c3)cc2C1c1ccc(C)cc1C (stereo not drawn),0.301 µM,15.8
COc1cc2c3c(n(CCCNC4CCC4)c(=O)c2cc1OC)-c1cc2c(cc1C3=O)OCO2,1.41 µM,3.22
N#Cc1c(-c2ccccc2)cc(-c2ccccc2)n(CCCC(=O)NO)c1=O,1.46 µM,4.56
C#C[C@]1(O)CC[C@H]2[C@@H]3CC=C4c5sc(Nc6nc(C)cc(OC)n6)nc5CC[C@]4(C)[C@H]3CC[C@@]21C,4.47 µM,> 100
COc1cc2c(cc1I)-c1c(cc(OC)c(OC)c1OC)CC[C@@H]2NC(C)=O,0.244 µM,0.738
CC(C)=CCC/C(C)=C/CC/C(C)=C/CC/C(C)=C/CSC[C@H](NC(=O)CCCCCN1CCN(C)CC1)C(=O)NC1CCCCC1,1.97 µM,4.49
C[n+]1c(-c2ccccc2)c2cc(N)ccc2c2ccccc21,0.224 µM,1.53
O=c1c2cc(F)ccc2sc2c(Nc3ccncc3)nc3ccccc3c12,1.78 µM,3.5
Clc1ccc2c(c1)C(Br)c1cc(Cl)cc(Cl)c1-2 (stereo not drawn),35.6 µM,> 100
Nc1nonc1C(=Nc1ccc(F)c(Cl)c1)NO,29.8 µM,> 100
CCNCc1c(-c2cccc(OC(F)(F)F)c2)[nH]c2ccc(N3CCCC3)cc2c1=O,2.22 µM,5.74
C=C1C(=O)O[C@H]2[C@H]1CC/C(COC(=O)/C=C/C(=O)NCc1ccc(Cn3c(=O)sn(-c4ccccc4)c3=O)cc1)=C\CC[C@@]1(C)O[C@@H]21,1.35 µM,3.69
COc1cc2ccnc(C=O)c2cc1OC,31.9 µM,> 100
COC(=O)[C@@H](C)C[C@H](Cc1ccc2ccccc2c1)NC(=O)c1csc([C@@H](C[C@H](C(C)C)N(C)C(=O)[C@@H](NC(=O)[C@H]2CCCCN2C)C(C)C)OC(C)=O)n1,0.00683 µM,> 25
Nc1nc(N)c(N=Nc2ccccc2)c(-c2ccccc2)n1,1.06 µM,11.4
COc1cc2c(cc1OCCCCCn1c(-c3ccc(OCc4ccccc4)cc3)nc3cc(N4CCOCC4)ccc31)N=C[C@@H]1CCCN1C2=O,0.936 µM,5.1
Cn1ncc(NC(=O)c2nc(-c3c(F)cccc3F)sc2N)c1N1CC[C@@H](N)[C@H](F)CC1,9.7 µM,26.8
CC1(C)CN(c2cc(C(F)(F)F)cc3cncn23)CCC12NC(=O)NC2=O (stereo not drawn),22.5 µM,82.9
